Source: patent US11780893B2, “Kv1.3 blockers” (Zealand Pharma A/S, priority 2019, dated 2023)
Bridge positions count the residues as written; N and C are the ends. Square brackets hold non-standard residues; d marks the D form. Peptide text beside a SMILES is read from it. Nle = CCCC[C@H](N)C(=O)O

Legend:
Kv1.1 = molecular target: T1, Kv1.1 (Homo sapiens, UniProt Q09470); assay: cell-based; conditions: for IC50: CHO cells, whole-cell patch clamp, read-out: Potency IC50 (nM) Kv1.1; for Selectivity Kv1.1/Kv1.3: ratio IC50[Kv1.1]/IC50[Kv1.3]
T1 construct: expressed in transfected cells; host or cells: Chinese Hamster Ovary (CHO)

[1] = molecular target: T2, human Kv1.3 voltage-gated K+ channel (Homo sapiens, UniProt P22001); assay: cell-based; conditions: inhibition of thallium flux, CHO-DUKX cells with human Kv1.3; read-out: IC50
T2 construct: host or cells: CHO-DUKX

Kv1.6 = molecular target: T3, Kv1.6 (Homo sapiens, UniProt P17658); assay: cell-based; conditions: for IC50: CHO cells, whole-cell patch clamp, read-out: Potency IC50 (nM) Kv1.6; for Selectivity Kv1.6/Kv1.3: ratio IC50[Kv1.6]/IC50[Kv1.3]
T3 construct: expressed in transfected cells; host or cells: Chinese Hamster Ovary (CHO)

Rat whole blood = Rat whole blood (Rattus norvegicus, UniProt P15384)
Kv1.3 = molecular target: T4, Kv1.3 (Homo sapiens, UniProt P22001); assay: cell-based; conditions: CHO cells, whole-cell patch clamp; read-out: Potency IC50 (nM) Kv1.3
T4 construct: expressed in transfected cells; host or cells: Chinese Hamster Ovary (CHO)

Kv1.2 = molecular target: T5, Kv1.2 (Homo sapiens, UniProt P16389); assay: cell-based; conditions: CHO cells, whole-cell patch clamp; read-out: Potency IC50 (nM) Kv1.2
T5 construct: expressed in transfected cells; host or cells: Chinese Hamster Ovary (CHO)
T5 sequence (P16389 whole entry): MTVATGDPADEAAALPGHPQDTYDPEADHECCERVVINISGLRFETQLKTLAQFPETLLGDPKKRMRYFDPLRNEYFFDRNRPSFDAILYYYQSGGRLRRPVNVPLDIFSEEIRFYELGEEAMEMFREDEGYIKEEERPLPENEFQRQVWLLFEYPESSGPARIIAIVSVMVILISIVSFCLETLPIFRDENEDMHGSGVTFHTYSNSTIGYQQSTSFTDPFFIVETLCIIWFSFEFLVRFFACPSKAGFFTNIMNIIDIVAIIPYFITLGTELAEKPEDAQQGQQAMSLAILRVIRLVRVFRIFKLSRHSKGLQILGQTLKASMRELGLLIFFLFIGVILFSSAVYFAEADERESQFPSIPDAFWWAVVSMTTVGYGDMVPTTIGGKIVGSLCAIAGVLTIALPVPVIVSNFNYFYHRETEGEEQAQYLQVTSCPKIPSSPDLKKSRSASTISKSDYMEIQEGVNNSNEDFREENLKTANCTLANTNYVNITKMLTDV

T3 sequence (P17658 whole entry): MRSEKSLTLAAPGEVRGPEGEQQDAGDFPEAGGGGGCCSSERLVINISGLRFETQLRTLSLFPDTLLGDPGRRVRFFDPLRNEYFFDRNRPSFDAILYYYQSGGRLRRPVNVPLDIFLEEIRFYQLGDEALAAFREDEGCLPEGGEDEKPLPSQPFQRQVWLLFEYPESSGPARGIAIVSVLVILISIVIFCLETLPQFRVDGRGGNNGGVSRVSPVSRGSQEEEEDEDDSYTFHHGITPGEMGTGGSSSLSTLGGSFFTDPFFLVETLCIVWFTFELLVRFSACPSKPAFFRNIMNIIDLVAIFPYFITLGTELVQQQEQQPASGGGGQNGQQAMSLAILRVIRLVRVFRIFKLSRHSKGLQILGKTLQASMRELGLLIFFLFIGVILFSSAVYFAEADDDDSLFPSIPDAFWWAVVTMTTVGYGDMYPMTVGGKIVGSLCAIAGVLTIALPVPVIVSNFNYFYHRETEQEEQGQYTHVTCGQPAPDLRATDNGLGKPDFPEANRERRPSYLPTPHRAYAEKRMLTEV
T1 sequence (Q09470 whole entry): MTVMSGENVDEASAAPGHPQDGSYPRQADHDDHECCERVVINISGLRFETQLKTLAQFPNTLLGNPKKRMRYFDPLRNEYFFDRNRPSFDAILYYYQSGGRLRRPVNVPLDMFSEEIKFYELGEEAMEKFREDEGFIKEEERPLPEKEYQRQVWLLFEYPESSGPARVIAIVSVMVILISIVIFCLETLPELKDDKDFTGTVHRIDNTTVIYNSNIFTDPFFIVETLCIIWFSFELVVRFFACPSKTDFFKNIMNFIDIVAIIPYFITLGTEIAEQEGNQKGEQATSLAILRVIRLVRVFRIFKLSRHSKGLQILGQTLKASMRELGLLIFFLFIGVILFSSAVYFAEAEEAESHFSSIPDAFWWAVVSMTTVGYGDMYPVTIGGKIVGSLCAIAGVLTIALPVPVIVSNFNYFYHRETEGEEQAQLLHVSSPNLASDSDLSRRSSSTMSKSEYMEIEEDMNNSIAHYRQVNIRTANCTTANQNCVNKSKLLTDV
Rat whole blood, sequence (P15384 whole entry): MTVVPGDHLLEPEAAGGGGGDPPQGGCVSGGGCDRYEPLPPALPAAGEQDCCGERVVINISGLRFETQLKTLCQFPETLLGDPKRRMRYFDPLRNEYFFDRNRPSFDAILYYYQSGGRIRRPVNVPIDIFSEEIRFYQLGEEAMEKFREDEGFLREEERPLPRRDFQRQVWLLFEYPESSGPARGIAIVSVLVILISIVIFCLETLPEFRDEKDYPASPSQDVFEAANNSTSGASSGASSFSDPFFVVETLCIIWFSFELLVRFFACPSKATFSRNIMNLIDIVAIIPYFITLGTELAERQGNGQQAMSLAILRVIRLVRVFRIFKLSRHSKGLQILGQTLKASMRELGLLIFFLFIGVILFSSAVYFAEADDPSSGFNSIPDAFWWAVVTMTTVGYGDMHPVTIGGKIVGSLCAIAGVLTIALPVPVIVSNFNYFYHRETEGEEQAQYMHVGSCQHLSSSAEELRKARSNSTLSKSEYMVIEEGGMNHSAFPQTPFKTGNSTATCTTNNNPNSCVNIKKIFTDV
T2 sequence (P22001 whole entry): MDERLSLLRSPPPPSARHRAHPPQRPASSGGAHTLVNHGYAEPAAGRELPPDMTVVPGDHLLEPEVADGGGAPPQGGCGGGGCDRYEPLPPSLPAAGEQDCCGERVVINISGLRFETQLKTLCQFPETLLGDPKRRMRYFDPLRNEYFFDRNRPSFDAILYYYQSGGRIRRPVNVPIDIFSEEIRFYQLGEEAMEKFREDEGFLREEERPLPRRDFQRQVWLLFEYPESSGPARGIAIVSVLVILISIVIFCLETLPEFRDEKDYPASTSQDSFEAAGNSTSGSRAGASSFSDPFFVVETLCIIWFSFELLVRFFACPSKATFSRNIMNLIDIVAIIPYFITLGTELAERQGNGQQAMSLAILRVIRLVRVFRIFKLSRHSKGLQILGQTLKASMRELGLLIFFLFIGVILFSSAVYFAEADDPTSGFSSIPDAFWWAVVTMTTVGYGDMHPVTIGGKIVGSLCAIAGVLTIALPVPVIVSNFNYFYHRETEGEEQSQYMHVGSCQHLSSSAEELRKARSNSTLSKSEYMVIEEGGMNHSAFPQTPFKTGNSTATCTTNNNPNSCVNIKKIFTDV
T4 sequence (P22001 whole entry): as above

Structure (SMILES) | IC50 (Kv1.1) | Selectivity Kv1.1/Kv1.3 (Kv1.1) | IC50 [1] | IC50 (Kv1.6) | Selectivity Kv1.6/Kv1.3 (Kv1.6) | IC50 (Rat whole blood) | IC50 (Kv1.3) | IC50 (Kv1.2)
CC[C@H](C)[C@@H]1NC(=O)[C@H](C)NC(=O)[C@H](CCCCN)NC(=O)[C@H](CC(C)C)NC(=O)[C@@H]2CSSC[C@@H](C(=O)N[C@@H](Cc3ccc(O)cc3)C(=O)N3CCC[C@H]3C(=O)N[C@@H](CCCNC(=N)N)C(N)=O)NC(=O)[C@H](CCCCN)NC(=O)[C@@H]3CSSC[C@H](NC(=O)[C@H](CCC(=O)O)NC(=O)[C@H](C(C)C)NC(=O)[C@H](CO)NC(=O)[C@H](C)NC(=O)[C@H](CO)NC(=O)[C@@H](NC(=O)[C@H](CCCNC(=N)N)NC(=O)[C@H](CCSC)NC(=O)[C@H](CC(=O)O)NC(=O)[C@H](CCSC)NC(=O)[C@@H](N)CC(N)=O)CSSC[C@H](NC(=O)[C@H](CCCCN)NC(=O)CNC(=O)[C@H](Cc4ccccc4)NC(=O)[C@H]([C@@H](C)CC)NC(=O)[C@H](CO)NC(=O)CNC1=O)C(=O)N[C@@H](CCSC)C(=O)N[C@@H](CC(N)=O)C(=O)N[C@@H](CCCCN)C(=O)N[C@@H](CCCCN)C(=O)N3)C(=O)N[C@@H](CC(C)C)C(=O)N[C@@H](CCC(N)=O)C(=O)N[C@@H](CCCCN)C(=O)N2 [Compound 29] (H-NMDMRCSASVECLQKCLKAIGSIFGKCMNKKCKCYPR-NH2; disulfide 6-27, 12-32, 16-34) | > 3000 nM | >7400 | 0.18 nM | > 3000 nM | >7400 | ≤ 1 nM | 0.4 nM | 874 nM
CC[C@H](C)[C@@H]1NC(=O)[C@H](C)NC(=O)[C@H](CCCCN)NC(=O)[C@H](CC(C)C)NC(=O)[C@@H]2CSSC[C@@H](C(=O)N[C@@H](Cc3ccc(O)cc3)C(=O)N3CCC[C@H]3C(=O)N[C@@H](CCCNC(=N)N)C(N)=O)NC(=O)[C@H](CCCCN)NC(=O)[C@@H]3CSSC[C@H](NC(=O)[C@H](CCC(=O)O)NC(=O)[C@H](C(C)C)NC(=O)[C@H](CO)NC(=O)[C@H]([C@@H](C)CC)NC(=O)[C@H](CO)NC(=O)[C@@H](NC(=O)[C@H](CCCNC(=N)N)NC(=O)[C@H](CCSC)NC(=O)[C@H](CC(=O)O)NC(=O)[C@H](CCSC)NC(=O)[C@@H](N)CC(N)=O)CSSC[C@H](NC(=O)[C@H](CCCCN)NC(=O)CNC(=O)[C@H](Cc4ccccc4)NC(=O)[C@H]([C@@H](C)CC)NC(=O)[C@H](CO)NC(=O)CNC1=O)C(=O)N[C@@H](CCSC)C(=O)N[C@@H](CC(N)=O)C(=O)N[C@@H](CCCCN)C(=O)N[C@@H](CCCCN)C(=O)N3)C(=O)N[C@@H](CCCCN)C(=O)N[C@@H](CCC(N)=O)C(=O)N[C@@H](CCCCN)C(=O)N2 [Compound 26] (H-NMDMRCSISVECKQKCLKAIGSIFGKCMNKKCKCYPR-NH2; disulfide 6-27, 12-32, 16-34) | > 3000 nM | >11800 | 0.092 nM | > 3000 nM | >11800 | ≤ 1 nM | 0.26 nM | 43 nM
CC[C@H](C)[C@@H]1NC(=O)[C@H](C)NC(=O)[C@H](CCCCN)NC(=O)[C@H](CC(C)C)NC(=O)[C@@H]2CSSC[C@@H](C(=O)N[C@@H](Cc3ccc(O)cc3)C(=O)N3CCC[C@H]3C(=O)N[C@@H](CCCNC(=N)N)C(N)=O)NC(=O)[C@H](CCCCN)NC(=O)[C@@H]3CSSC[C@H](NC(=O)[C@H](CCC(N)=O)NC(=O)[C@H](C(C)C)NC(=O)[C@H](CO)NC(=O)[C@H](C)NC(=O)[C@H](CO)NC(=O)[C@@H](NC(=O)[C@H](CCCNC(=N)N)NC(=O)[C@H](CCSC)NC(=O)[C@H](CC(=O)O)NC(=O)[C@H](CCSC)NC(=O)[C@@H](N)CC(N)=O)CSSC[C@H](NC(=O)[C@H](CCCCN)NC(=O)CNC(=O)[C@H](Cc4ccccc4)NC(=O)[C@H]([C@@H](C)CC)NC(=O)[C@H](CO)NC(=O)CNC1=O)C(=O)N[C@@H](CCSC)C(=O)N[C@@H](CC(N)=O)C(=O)N[C@@H](CCCCN)C(=O)N[C@@H](CCCCN)C(=O)N3)C(=O)N[C@@H](CCCCN)C(=O)N[C@@H](CCC(N)=O)C(=O)N[C@@H](CCCCN)C(=O)N2 [Compound 28] (H-NMDMRCSASVQCKQKCLKAIGSIFGKCMNKKCKCYPR-NH2; disulfide 6-27, 12-32, 16-34) | > 3000 nM | >15200 | 0.064 nM | 252 nM |  | ≤ 1 nM | 0.2 nM | 16 nM
CCCC[C@@H]1NC(=O)[C@@H]2CSSC[C@H](NC(=O)[C@H](CCCNC(=N)N)NC(=O)[C@H](CCCC)NC(=O)[C@H](CC(=O)O)NC(=O)[C@H](CCCC)NC(=O)[C@@H](N)CC(N)=O)C(=O)N[C@@H](CO)C(=O)N[C@@H](C)C(=O)N[C@@H](CO)C(=O)N[C@@H](C(C)C)C(=O)N[C@@H](CCC(=O)O)C(=O)N[C@H]3CSSC[C@H](NC(=O)[C@H](CCCCN)NC(=O)[C@H](CCCCN)NC(=O)[C@H](CC(N)=O)NC1=O)C(=O)N[C@@H](CCCCN)C(=O)N[C@H](C(=O)N[C@@H](Cc1ccc(O)cc1)C(=O)N1CCC[C@H]1C(=O)N[C@@H](CCCNC(=N)N)C(N)=O)CSSC[C@H](NC(=O)[C@H](CCCCN)NC(=O)[C@H](CCC(N)=O)NC(=O)[C@H](CCCCN)NC3=O)C(=O)N[C@@H](CCCCN)C(=O)N[C@@H](C)C(=O)N[C@@H]([C@@H](C)CC)C(=O)NCC(=O)N[C@@H](CO)C(=O)N[C@@H]([C@@H](C)CC)C(=O)N[C@@H](Cc1ccccc1)C(=O)NCC(=O)N[C@@H](CCCCN)C(=O)N2 [Compound 49] (H-N[Nle]D[Nle]RCSASVECKQKCKAIGSIFGKC[Nle]NKKCKCYPR-NH2; disulfide 6-26, 12-31, 16-33) | > 3000 nM | >2200 | 0.36 nM | 946 nM |  | ≤ 1 nM | 1.34 nM | 164 nM
CC[C@H](C)[C@@H]1NC(=O)[C@H](C)NC(=O)[C@H](CCCCN)NC(=O)[C@H](CC(C)C)NC(=O)[C@@H]2CSSC[C@@H](C(=O)N[C@@H](Cc3ccc(O)cc3)C(=O)N3CCC[C@H]3C(=O)N[C@@H](CCCNC(=N)N)C(N)=O)NC(=O)[C@H](CCCCN)NC(=O)[C@@H]3CSSC[C@H](NC(=O)[C@H](CCC(=O)O)NC(=O)[C@H](C(C)C)NC(=O)[C@H](CO)NC(=O)[C@H](C)NC(=O)[C@H](CO)NC(=O)[C@@H](NC(=O)[C@H](CCCNC(=N)N)NC(=O)[C@H](CCSC)NC(=O)[C@H](CC(=O)O)NC(=O)[C@H](CCSC)NC(=O)[C@@H](N)CC(N)=O)CSSC[C@H](NC(=O)[C@H](CCCCN)NC(=O)CNC(=O)[C@H](Cc4ccccc4)NC(=O)[C@H]([C@@H](C)CC)NC(=O)[C@H](CO)NC(=O)CNC1=O)C(=O)N[C@@H](CCSC)C(=O)N[C@@H](CC(N)=O)C(=O)N[C@@H](CCCCN)C(=O)N[C@@H](CCCCN)C(=O)N3)C(=O)N[C@@H](CCCCN)C(=O)N[C@@H](CCC(=O)O)C(=O)N[C@@H](CCCCN)C(=O)N2 [Compound 31] (H-NMDMRCSASVECKEKCLKAIGSIFGKCMNKKCKCYPR-NH2; disulfide 6-27, 12-32, 16-34) | > 3000 nM | >10800 | 0.075 nM | > 3000 nM | >10800 | ≤ 1 nM | 0.28 nM | 179 nM
